The values that follow come from patent US6890948B1 (Cancer Research Technology Limited, priority 2000, dated 2005).

Like-named read-outs stand apart in the source and are kept apart here. Marks after values point to notes of the source that are not given here.

Data set [1] relates to Hamster lung fibroblast V79 cells. Briefly: Cytotoxic effects of compounds of formula (I) with horseradish peroxidase (HRP), clonogenic cell survival. It counts as cell-based. The conditions noted are these: 2 hours treatment, mean ± standard error of three experiments unless n given. As to the method:
Hamster lung fibroblast V79 cells were obtained from the European Tissue Culture Collection. Cells were grown over the weekend in […] tissue culture flats as attached cells in Eagle's Modified Essential Medium (EMEM) supplemented with 10% foetal calf serum, 2 mM L-glutamine, 100 U/mL penicillin and 100 μg/mL streptomycin, and incubated in a humidified incubator at 37° C., in 5% CO2/air. […] The trypsin was deactivated by the addition of 10 mL spinner modified EMEM (supplemented with 7.5% foetal calf serum) and the cells allowed to grow in a spinning culture, pre-gassed with 5% CO2/air, maintaining the cells in logarithmic growth.
Cells were prepared for toxicity measurements by counting and plating 200, 2000 or 20,000 cells/6 cm Petri dish in 3 mL EMEM in triplicate for each sample. The cells were allowed to attach for at least 1 hour, then the medium removed and 2 mL phenol red free Hanks' balanced salt solution added, either alone (control) or with 50 or 100 μM of the compound of formula (I) to be tested. HRP (50 μL of 0.048 mg/mL) was added to the test dishes requiring it and the cells left in the incubator for 0, 0.5, 1, 1.5 or 2 hours. After the incubation time the drug was removed, the cells washed with 2 mL Hanks and then 4 mL EMEM added. The cells were allowed to grow for 7 days to colonies of >50 cells. After 7 days the medium was removed and the cells fixed with 75% methanol for 5 minutes. The methanol was then removed and the cells stained with 1% w/v crystal violet for 5 minutes. The cells were washed and colonies counted. Cell survival was determined by calculating the ratio of colonies growing compared to untreated control cells.
In table 1, values are the surviving fraction after 2 hours treatment with the IAA derivatives at the concentrations shown together with HRP (1.2 μg/mL). Unless otherwise indicated (by n=number of individual experiments), the means±the standard errors of three experiments are given.

Data set [2] relates to Human bladder carcinoma T24 cells. The experiment in a line: GDEPT: clonogenic survival of cells transiently transfected with the HRP gene versus untransfected cells. In kind it is cell-based. The following applies: for IC50: Homo sapiens, T-24, 24 h; for factor: ratio of IC50 for transfected and untransfected cells. As to the method:
(§1) Human bladder carcinoma T24 cells, MCF-7 mammary carcinoma cells (both from European Collection of Cell Cultures, Salisbury, UK), FaDu, nasopharyngeal squamous carcinoma cells (American Type Culture Collection, Manassas, Va.) were maintained in Dulbecco's modified Eagle's medium (DMEM) supplemented with 10% foetal calf serum, 2 mM L-glutamine, 100 U/ml penicillin, 100 µg/ml streptomycin, and incubated in a humidified incubator at 37° C. and 5% CO2/air. Only cells which tested negative for mycoplasma infection were utilised.
(§2) Following drug exposure, cells were rinsed with PBS and grown for 8 to 20 days in complete DMEM supplemented with feeder cells (V79 cells exposed to 250 Gy ^60Co irradiation). After fixation and staining with 2.5% crystal violet w/v in methylated spirit, colonies of >50 cells were scored. Surviving fractions were evaluated relative to HBSS-treated controls.

The subject of data set [3] is FaDu, nasopharyngeal squamous carcinoma cells. Described as above. In kind it is cell-based, human. The following applies: for IC50: Homo sapiens; for factor: ratio of IC50 for transfected and untransfected cells. As to the method:
as §1, §2

Data set [4] deals with MCF-7 mammary carcinoma cells. Described as above. It counts as cell-based, human. The following applies: for IC50: Homo sapiens; for factor: MCF-7, ratio of IC50 for transfected and untransfected cells. How it is done:
as §1, §2

Data set [5] can be described thus: Distribution of 5-fluoro-indole acetic acid in vivo in mice with the Carcinoma NT tumour. The following applies: 50 mg/kg i.p., female CBA mice bearing Carcinoma NT tumour, up to 2 hours. How it is done:
5-fluoro-indole acetic acid (5 mg/mL) in 2% v/v ethanol/water was adjusted to pH 7.4 with NaOH and injected i.p. at a dose of 50 mg/kg into female CBA mice bearing the Carcinoma NT tumour (see example 8 for details). The mice were sacrificed up to 2 hours after drug administration and the blood and tissues removed immediately and placed on ice. The whole blood was spun down and the plasma stored at −20° C. Tissue sample were weighed and homogenised in 4 to 9 volumes of ice-cold water. The homogenised tissue was then stored at −20° C.
For HPLC analysis, plasma (50 μL) was mixed with IAA internal standard (130 μM, 25 μL) and protein precipitated with acetonitrile (50 μL). The samples were spun down and the supernatant injected directly for HPLC analysis. For tissue levels, samples (250 μL) was mixed with IAA internal standard (130 μM, 25 μL) and precipitated with acetonitrile (250 μL) for direct injection for HPLC analysis. HPLC analysis was carried out with a Hypersil SODS 125×4.6 mm column eluting with A; 75% acetonitrile and B: 20 mM ammonium acetate (pH 5.1) with a gradient of 15-70% A in 10 minutes at 2 mL/minute. Detection was at 290 nm using a Waters 486 variable wavelength detector.

Setting [6] is: 100 μM IAA derivative together with HRP (1.2 μg/mL), 0^a = all cells killed, 1^b = no detectable effect.
[7] abbreviates: 50 μM IAA derivative together with HRP (1.2 μg/mL).

By melting point is commonly meant the temperature of the solid-liquid transition. Molecule `O=C(O)Cc1c[nH]c2c(F)cc(Cl)cc12` [SR091, 5-Chloro-7-fluoroindole-3-acetic acid] returned a melting point of 164 to 166 °C.

`O=C(O)Cc1c[nH]c2cccc(F)c12` [SR039, 4-Fluoroindole-3-acetic acid] had a melting point of 129 to 131 °C. Also, in data set [1] (setting [6]), the surviving fraction was determined as 0.000085 ± 0.00007.

`O=C(O)Cc1c[nH]c2ccc(-c3ccc(Cl)cc3)cc12` [SR150, 5-(4-Chlorophenyl)indole-3-acetic acid] registered a melting point of 166 to 168 °C.

The IC50 is the point on the concentration scale where inhibition reaches its midpoint. In data set [1] (setting [6]), `O=C(O)Cc1c[nH]c2ccc(Br)cc12` [Compound 5-bromo, 5-bromo-indole-3-acetic acid] yielded a surviving fraction of 0.00004 ± 0.00003. Moreover, the IC50 in data set [2] (read-out: IC50 HRP+, T24 (anoxic), transfected cells, 24 hours exposure in anaerobic cabinet) is 7 µM; in data set [2] (read-out: IC50 HRP+, T24 (normoxic), transfected cells, 24 hours exposure, estimated from survival curves) it was 6 µM; in data set [2] (read-out: IC50 HRP−, T24 (anoxic), untransfected cells, 24 hours exposure in anaerobic cabinet), 1000 µM; in data set [2] (read-out: IC50 HRP−, T24 (normoxic), untransfected cells, 24 hours exposure), 600 µM; in data set [3] (24 h, read-out: IC50 HRP+), 7 µM; in data set [3] (24 h, read-out: IC50 HRP−), 600 µM. The IC50 in data set [4] (MCF7, 24 h, read-out: IC50 HRP+) is 7 µM; in data set [4] (MCF7, 24 h, read-out: IC50 HRP−) it was 500 µM. Moreover, the factor was 43 in data set [2] (T24 (anoxic)), 100 in data set [2] (T24 (normoxic)), 86 in data set [3] and 71 in data set [4].

Molecule `O=C(O)Cc1c[nH]c2cc(Br)ccc12` [SR069, 6-Bromoindole-3-acetic acid] had a melting point of 174 to 176 °C. For the same molecule, in data set [1] (setting [7]), the surviving fraction is 0.0031 ± 0.0023. In addition, the surviving fraction in data set [1] (setting [6]) is reported as 0^a.

For `Cc1[nH]c2ccc(F)cc2c1CC(=O)O` [SR036, 5-Fluoro-2-methylindole-3-acetic acid], the melting point was 182 to 184 °C.

On to `Cn1cc(CC(=O)O)c2ccc(Cl)cc21` [SR139, 6-Chloro-1-methylindole-3-acetic acid], for which the melting point was 130 to 132 °C (dec.).

`O=C(O)Cc1c[nH]c2cc(Cl)ccc12` [SR058, 6-Chloroindole-3-acetic acid] gave a melting point of 183 to 185 °C. Moreover, in data set [1] (setting [7]), the surviving fraction was 0.00085 (n = 1). Further, the surviving fraction in data set [1] (setting [6]) is on record as 0^a.

`O=C(O)Cc1c[nH]c2ccc(F)cc12` [Compound 5-fluoro, 5-fluoro-indole-3-acetic acid]: the surviving fraction in data set [1] (setting [7]) is 0.0045 ± 0.003; in data set [1] (setting [6]) it was 0^a. Moreover, the IC50 is 30 µM in data set [2] (T24 (anoxic), transfected cells, 24 hours exposure in anaerobic cabinet, read-out: IC50 HRP+); 2300 µM in data set [2] (T24 (anoxic), untransfected cells, 24 hours exposure in anaerobic cabinet, read-out: IC50 HRP−); 40 µM in data set [2] (T24 (normoxic), transfected cells, 24 hours exposure, estimated from survival curves, read-out: IC50 HRP+); 3500 µM in data set [2] (T24 (normoxic), untransfected cells, 24 hours exposure, read-out: IC50 HRP−); 20 µM in data set [3] (transfected cells, 24 hours exposure, read-out: IC50 HRP+); 1200 µM in data set [3] (untransfected cells, 24 hours exposure, read-out: IC50 HRP−). The IC50 was 250 µM in data set [4] (MCF7, MCF-7, transfected cells, 24 hours exposure, read-out: IC50 HRP+) and 400 µM in data set [4] (MCF7, MCF-7, untransfected cells, 24 hours exposure, read-out: IC50 HRP−). Further, the factor in data set [2] (T24 (anoxic)) is reported as 77; in data set [2] (T24 (normoxic)), 88; in data set [3] it was 60; in data set [4], 1.6. In data set [5], the “concentration in the tumour” value is on record as “sufficient concentrations to achieve a cytotoxic effect are attained in the tumour”. Besides, in data set [5], the “levels in the kidney” value is “High levels in the kidney”.

For the molecule `O=C(O)Cc1c[nH]c2c(F)cccc12` [SR022, 7-Fluoroindole-3-acetic acid], the melting point fell in the range of 159 to 161 °C. Besides, the surviving fraction in data set [1] (setting [7]) was 0.053 ± 0.022. Also, the surviving fraction in data set [1] (setting [6]) was 0^a.

`O=C(O)Cc1c[nH]c2ccc(Cl)cc12` [SR024, 5-Chloroindole-3-acetic acid] had a melting point of 160 to 161 °C. For the same molecule, the surviving fraction in data set [1] (setting [6]) was 0.0027 ± 0.0022.

On to `O=C(O)Cc1c[nH]c2ccc(OC(F)(F)F)cc12` [SR073, 5-Trifluoromethoxyindole-3-acetic acid], for which the melting point is 120 to 122 °C.

Regarding `O=C(O)Cc1c[nH]c2cc(F)ccc12` [SR043, 6-Fluoroindole-3-acetic acid], the melting point fell in the range of 161 to 163 °C. The surviving fraction in data set [1] (setting [6]) is given as 0.00995 (n = 2).

Regarding `Cc1cc(F)c2[nH]cc(CC(=O)O)c2c1` [SR109, 7-Fluoro-5-methylindole-3-acetic acid], the melting point lay within 138 to 140 °C.

`O=C(O)Cc1c[nH]c2c(Cl)cccc12` [SR052, 7-Chloroindole-3-acetic acid] came in with a melting point of 164 to 165 °C. The surviving fraction in data set [1] (setting [6]) is reported as 0.000042 (n = 1).

Consider `Cc1ccc(F)c2[nH]cc(CC(=O)O)c12` [SR148, 7-Fluoro-4-methylindole-3-acetic acid], for which the melting point was 162 to 164 °C (dec.).

`O=C(O)Cc1c[nH]c2cc(Cl)cc(Cl)c12` [SR085, 4,6-Dichloroindole-3-acetic acid] came in with a melting point of 223 to 224 °C.
